A short description of data set [1]: Solubility / phase separation observation in water and aqueous salt solutions. The data set is classed as physicochemical. As for the experimental part:
If there are long chain fatty acids present in the starting material, these fatty acids are precipitated as the ammonium salt, along with the long chain amino acid. In the production of 11-aminoundecanoic acid and dodecanedioic acid from the starting material of castor oil, significant amount of stearic acid is present in the mixed amide derivatives. […] If ammonia or ammonium hydroxide is used as the basic agent to neutralize sulfuric acid, and after more basic agent is added to the mother liquor to a basic pH, alkylamine can only be recovered by extraction. Distillation of the basic solution will remove ammonia instead of alkylamine. […] No phase separation is observed between hexylamine and a solution of ammonium sulfate.

Data set [2] can be described thus: Solubility curve in 5% aqueous solution of ammonium hydroxide (FIG. 4). The data set is classed as physicochemical. Conditions: as a function of temperature (FIG. 4). From the text:
FIG. 4. Solubility curve of 11-aminoundecanoic acid and dodecanedioic acid in 5% aqueous solution of ammonium hydroxide.
In one embodiment of the present invention, schematically illustrated in FIG. 1, the solution or suspension is further cooled to crystallize the long chain amino acid, which can be recovered by means of solid-liquid separation to provide a mother liquor containing the ammonium or alkylamine salts of long chain dibasic acid and alkanoic acid. […] The three components in the mother liquor, i.e., alkylamine, dodecanedioic acid, and alkanoic acid, can be separated according to one of the following three methods.

Where a name gives a salt, the structure may show the parent alone.

In the case of `CCCCCCN` [hexylamine], the Solubility result in data set [1] (in a solution of alkali salt) is “insoluble”; in data set [1] (in a solution of ammonium salt, i.e., ammonium sulfate), “freely soluble”; in data set [1] (in water), “insoluble”.
In the case of `O=C(O)CCCCCCCCCCC(=O)O` [ammonium salt of dodecanedioic acid, dodecanedioic acid], in data set [2], the Solubility entry was “soluble and becomes more soluble as temperature increases”.
Take `NCCCCCCCCCCC(=O)O` [11-aminoundecanoic acid]: the Solubility result in data set [2] is on record as “nearly insoluble”.

These data come from patent US10053416B1, “Process for producing long chain amino acids and dibasic acids” (VITAWORKS IP, LLC, priority 2017, dated 2018).
